# “Also recorded” adds a separate entry of the source. Peptide text beside a SMILES is read from it.
# What was measured:
# [1] = system: SCC13 cells xenograft tumors; experiment: Mouse SCC tumor xenografts (TUNEL, immunofluorescence, tumor growth); format: in vivo; settings: for tumor volume compared to vehicle-treated xenografts: mouse xenograft tumors; for P-Akt (S473) levels in SCC xenografts (immunofluorescence) / Survivin levels in SCC xenografts (immunofluorescence): vs vehicle-treated xenografts; for increase in number of TUNEL-positive SCC cells compared to vehicle: intratumoral 2.5 nmol/50 μL, NCG mice, SCC13
# Experimental: Immunofluorescence was performed using an alexa-fluor488-conjugated secondary antibody (IgG mouse or rabbit) (Invitrogen) with 4′,6-diamidino-2-phenylindole (DAPI) (Vector Labs, Burlingame, Calif., USA) to identify nuclei. Cellular localization of immunohistochemistry signal was determined in a double-blinded manner. Slides were digitalized and fluorescence intensity was measured using Image analysis was performed using the Olympus VS120 Slide Scanner and Olyvia Analysis Software, respectively (Olympus, Tokyo, Japan).
# Groups of NCG mice (NOD CRISPR Prkdc Il2r gamma/NjuCrl) (Charles River, Malvern, Pa., USA) were injected s.c. with 5×10^5 SCC13 cells suspended in 1:1 mixture of 1×PBS:Matrigel (Corning, Corning, N.Y., USA). Once the tumors reached a volume of 150 mm^3, tumors were treated with either vehicle (50 μL 1×PBS) or 2.5 nmol/50 μL of the targeting peptide ES1P2. Tumors were injected directly with either vehicle or ES1P2 daily for 2 days or every other day for 2 weeks and then harvested for analysis 24 hours after the last treatment. Tumors were fixed overnight in 10% buffered formalin (Thermo Fisher) and then switched to 70% ethanol the following day. All procedures were performed in accordance with the guidance of Creighton University Institutional Animal Care and Use Committee.
# TUNEL (Terminal deoxynucleotidyl transferase dUTP nick end labeling) was carried out using Promega DeadEnd Fluorometric TUNEL system in accordance with the manufacturer's instructions (Promega). Cells were treated with DAPI (Vector Labs) to locate the nuclei within cells. […] Slides were digitalized and apoptotic nuclei counted using an Olympus VS120 Slide Scanner (Olympus).
# Immunostaining was performed using antibodies recognizing P-Akt (S473) (Thermo Fisher) and Survivin (Cell Signaling, Danvers, Mass., USA), with alexa-fluor488-conjugated secondary antibody (IgG rabbit) (Invitrogen) with 4′,6-diamidino-2-phenylindole (DAPI) (Vector Labs, Burlingame, Calif., USA) to identify the nuclei. Slides were digitalized and analyzed using an Olympus VS120 Slide Scanner (Olympus, Shinjuku, Tokyo, JPN).
# Groups of NCG mice (NOD CRISPR Prkdc Il2r gamma/NjuCrl) (Charles River, Malvern, Pa., USA) were injected s.c. with 5×10^5 human SCC13 cells suspended in 1:1 mixture of 1×PBS:Matrigel (Corning, Corning, N.Y., USA). Once the tumors reached 150 mm^3 in volume they were treated intratumorally with either vehicle (1× sterile PBS, pH, 7.5), pS, or pT (2.5 nmol/50 μL for each) daily for 2 days and then the mice were euthanized 24 hours after the second treatment. Tumors were fixed overnight in 10% neutral buffered formalin (Thermo Fisher) and then switched to 70% ethanol the following day before embedding and sectioning. All procedures were performed in accordance with the guidance of the Creighton University Institutional Animal Care and Use Committee.
# TUNEL (terminal uridine nick-end labelling) assays were carried out using the Promega DeadEnd Fluorometric TUNEL system in accordance with the manufacturer's instructions (Promega Corporation, Madison, Wis., USA). Cells were treated with 4′,6-diamidino-2-phenylindole (DAPI) to locate the nuclei within cells. Slides were scanned and analyzed using an Olympus VS120 Slide Scanner (Olympus).
# SCC12B.2 cells = experiment: Caspase-3/7 Glo assay (apoptosis); format: cell-based, human; settings: ES1P2 20 μM; pS 30 μM; pT 20 μM, 24 hours; vs vehicle
# Experimental: Apoptosis was assessed using a Caspase-3/7 Glo assay (Promega Corporation, Madison, Wis., USA) in a 96-well white-bottom plate (BRANDplates, Wertheim, Germany) according to the manufacturer's instructions. Cells were seeded at a density of 8×10^3 cells/well and incubated overnight before treatments or transfections. Luminescence was read using a Cytation 5 multi-mode plate reader (BioTek Instruments, Winooski, Vt., USA).
# Apoptosis was assessed using a Caspase-3/7 Glo assay (Promega) in a 96-well white-bottom plate (BRANDplates, Wertheim, Germany). Cells were seeded at a density of 8×10^3 cells/well and Caspase-3/7 glo was performed 24 hours post-treatment according to the manufacturer's instructions and read using a Cytation 5 multi-mode plate reader (BioTek, Instruments, Winooski, Vt., USA).
# 14-3-3ε protein = biological target: T1, 14-3-3ε protein (Homo sapiens, UniProt P62258); experiment: Differential scanning fluorimetry (DSF) binding; settings: 7 μM 14-3-3ε, ΔTm vs peptide concentration, Hill fit; read-out: Kd, binding affinity to 14-3-3ε protein (DSF)
# T1 sequence (P62258 1-255): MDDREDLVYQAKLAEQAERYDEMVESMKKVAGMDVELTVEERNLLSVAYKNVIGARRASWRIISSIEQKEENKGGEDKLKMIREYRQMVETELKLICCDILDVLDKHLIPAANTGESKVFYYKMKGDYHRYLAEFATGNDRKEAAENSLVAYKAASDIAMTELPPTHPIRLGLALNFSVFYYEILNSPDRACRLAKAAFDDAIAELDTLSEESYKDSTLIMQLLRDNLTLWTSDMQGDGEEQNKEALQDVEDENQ
# Experimental: Differential scanning fluorimetry (DSF) experiments were performed using BioRad CFX384 Real-Time qPCR attached with C1000 Touch Thermo Cycler in the FRET channel. 7 μM subunits of 14-3-3ε protein, ten molar excess of Sypro Orange and 20 mM Tris-HCl, pH 7.4 assay buffer were used in all the melting experiments. Stock solution of peptides were prepared by dissolving 1 mg of lyophilized peptides in 20 mM Tris, pH 7.4 buffer and 0.1 μM to 200 μM dilution series were prepared. Protein melting experiments were performed both in the absence and the presence of increasing concentration of peptides. 15 μL of each samples (in triplicate) were put into each well of a 384-well white PCR plate and sealed with optical adhesive sealer (BioRad MSB-1001) and any air-bubble in the solutions were removed by spinning the plate vertically with PCR plate spinner (Labnet MPS 1000) at 1000 RPM for 3 minutes. The temperature was increased from 25° C. to 95° C. at a rate of 0.7° C. per minute. Melting temperatures of each well were determined using the CFX Maestro software version 2.0 by plotting the first derivative of fluorescence signal against temperature. All the measurements were performed in triplicate and the deviations of melting temperatures (ΔTm) presented for each samples were calculated relatively to three control samples (7 μM 14-3-3ε in the absence of the peptide). Binding constant (Kd) for each peptide was calculated by plotting ΔTm against peptide concentration and data points were fitted with Hill's equation using GraphPad 9.0 software.
SMILES,"number of TUNEL-positive SCC cells compared to vehicle ([1]; intratumoral 2.5 nmol, 2 daily treatments)",tumor volume compared to vehicle-treated xenografts [1],"reduction of SCC growth compared to vehicle ([1]; repeated intratumoral treatments of SCC xenografts, FIG. 1H/1I)",P-Akt (S473) levels in SCC xenografts (immunofluorescence) [1],Survivin levels in SCC xenografts (immunofluorescence) [1],apoptosis of SCC cells (Caspase-3/7) (SCC12B.2 cells),Kd (14-3-3ε protein),increase in number of TUNEL-positive SCC cells compared to vehicle ([1]; 2 daily treatments)
"NCCCC[C@H](NC(=O)[C@H](Cc1c[nH]c2ccccc12)NC(=O)[C@H](Cc1ccc(O)cc1)NC(=O)[C@@H](N)Cc1c[nH]c2ccccc12)C(N)=O [ES1P2, Trp-Tyr-Trp-Lys-NH2] (H-WYWK-NH2)",more than doubled,decreased tumor growth; also recorded: reduced tumor volume,approximately one-third,decreased,decreased,increasing apoptosis to a statistically significant degree,,
"CC(=O)N[C@@H](CCCNC(=N)N)C(=O)N[C@H](C(=O)N[C@@H](CCCCN)C(=O)N[C@@H](CO)C(=O)N[C@@H](CCCNC(=N)N)C(=O)N[C@H](C(=O)N[C@@H](Cc1c[nH]c2ccccc12)C(=O)N[C@@H](C)C(=O)NCC(=O)N[C@@H](CCC(=O)O)C(=O)N[C@@H](CCCCN)C(=O)N[C@@H](CO)C(=O)N[C@@H](CCCCN)C(=O)N[C@@H](CCCNC(=N)N)C(N)=O)[C@@H](C)OP(=O)(O)O)[C@@H](C)O [pT, Ac-Arg-Thr-Lys-Ser-Arg-Thr(PO3^2−)-Trp-Ala-Gly-Glu-Lys-Ser-Lys-Arg-NH2] (HELM PEPTIDE1{[ac].R.T.K.S.R.[C[C@@H](OP(=O)(O)O)[C@H](N[*:1])C(=O)[*:2]].W.A.G.E.K.S.K.R.[am]}$$$$V2.0)",,decreased volume,,decreased,decreased,increased apoptosis,3.64 µM,51%
"CSCC[C@H](NC(=O)[C@H](CCCNC(=N)N)NC(=O)[C@@H]1CCCN1C(=O)[C@H](C)NC(=O)[C@H](COP(=O)(O)O)NC(=O)[C@H](CC(N)=O)NC(=O)[C@H](CCC(N)=O)NC(=O)[C@H](CCCNC(=N)N)NC(=O)[C@H](CCC(N)=O)NC(=O)[C@@H](NC(C)=O)[C@@H](C)O)C(=O)N[C@@H](CC(C)C)C(=O)N[C@@H](CO)C(=O)N[C@@H](CO)C(=O)N[C@@H](CC(N)=O)C(N)=O [pS, Ac-Thr-Gln-Arg-Gln-Asn-Ser-(PO3^2−)-Ala-Pro-Arg-Met-Leu-Ser-Ser-Asn-NH2] (HELM PEPTIDE1{[ac].T.Q.R.Q.N.[O=C([C@H](COP(=O)(O)O)N[*:1])[*:2]].A.P.R.M.L.S.S.N.[am]}$$$$V2.0)",,decreased volume,,decreased,decreased,increased apoptosis,11.2 µM,25%
